In ChEMBL document CHEMBL1146225, “[1,2,3]Triazolo[4,5-h]quinolones. A new class of potent antitubercular agents against multidrug resistant Mycobacterium tuberculosis strains” (Bioorg Med Chem Lett, 2007) one finds MIC90, CC50 and CFU data, which are given here for one compound.

Data set [1] has as its system Mycobacterium tuberculosis. Put plainly: Antitubercular activity against Mycobacterium tuberculosis SS6. Type of data set: functional.
The test system of data set [2] is Mycobacterium tuberculosis. Put plainly: Antitubercular activity against Mycobacterium tuberculosis H37Rv. Type of data set: functional.
A short description of data set [3]: Cytotoxicity against human Hep2 cells. Type of data set: cell-based, HEp-2.
Data set [4] in a line: Cytotoxicity against human J774A1. As to conditions: J774A1 cells. Type of data set: cell-based, J774.A1.
In data set [5] the test system is Mycobacterium tuberculosis. Put plainly: Effect on mycobacterial growth of Mycobacterium tuberculosis H37Rv infected in human J774A1 cells at 0.25 ug/mL after 7 days. Type of data set: functional, J774.A1.
Data set [6] relates to Mycobacterium tuberculosis. Put plainly: Antitubercular activity against Mycobacterium tuberculosis SS5. Type of data set: functional.
In data set [7] the test system is Mycobacterium tuberculosis. The data set can be described thus: Antitubercular activity against Mycobacterium tuberculosis SS8. Type of data set: functional.
For data set [8], the system named is Mycobacterium tuberculosis. The data set can be described thus: Antitubercular activity against Mycobacterium tuberculosis SS2. Type of data set: functional.
The test system of data set [9] is Mycobacterium tuberculosis. The data set can be described thus: Antitubercular activity against Mycobacterium tuberculosis SS11. Type of data set: functional.
Data set [10] relates to Mycobacterium tuberculosis. Put plainly: Antitubercular activity against Mycobacterium tuberculosis SS10. Type of data set: functional.
Data set [11] deals with Mycobacterium tuberculosis. Put plainly: Antitubercular activity against Mycobacterium tuberculosis SS4. Type of data set: functional.
For data set [12], the system named is Mycobacterium tuberculosis. The data set can be described thus: Antitubercular activity against Mycobacterium tuberculosis SS7. Type of data set: functional.
The test system of data set [13] is Mycobacterium tuberculosis. The data set can be described thus: Antitubercular activity against Mycobacterium tuberculosis SS3. Type of data set: functional.
For data set [14], the system named is Mycobacterium tuberculosis. Put plainly: Antitubercular activity against Mycobacterium tuberculosis SS9. Type of data set: functional.
Data set [15] relates to Mycobacterium tuberculosis. The data set can be described thus: Antitubercular activity against Mycobacterium tuberculosis SS1. Type of data set: functional.
Data set [16] deals with Mycobacterium tuberculosis. The data set can be described thus: Effect on mycobacterial growth of Mycobacterium tuberculosis H37Rv infected in human J774A1 cells at 0.5 ug/mL after 7 days. Type of data set: functional, J774.A1.

≈ marks a conversion by molar mass, not a printed value.

Broadly, the MIC90 is an inhibitory concentration at the 90% level, which refers to growth in some studies and to a panel of isolates in others. Lower therefore signals greater potency. As usually defined, the CC50 is the concentration at which the toxic effect on the cells reaches its halfway point.

As for `CCCCn1cc(C(=O)OCC)c(=O)c2ccc3c(nnn3C)c21`, the MIC90 in [1], in [2], in data set [6], in data set [7], in data set [8] and in [9] was 0.5 µg/mL (≈ 1.52 µM) throughout. Moreover, the MIC90 in data set [10], in data set [11], in data set [12], in [13], in data set [14] and in data set [15] was 0.5 µg/mL (≈ 1.52 µM) each time. Further, the CC50 in data set [3] and in [4] was above 50 µg/mL throughout. In addition, the figures for the CFU in [5] and in [16] were 8000 µL⁻¹ and 5000 µL⁻¹, respectively.
